Experimental data reported in PubChem BioAssay (NCI).
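Values below derive from 48-hour exposures of cells grown in 96-well plates, with endpoints linearly interpolated between the two concentrations bracketing the appropriate inhibition level. TGI denotes the concentration required for complete inhibition of growth.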

Assays:
Assay in all cases: DTP human tumour cell line panel, 48 h
SK-OV-3 ovarian = system: SK-OV-3 ovarian
SN12C renal = system: SN12C renal
EKVX NSCLC = system: EKVX NSCLC
IGROV1 ovarian = system: IGROV1 ovarian
HCT-116 colon = system: HCT-116 colon
SNB-19 CNS = system: SNB-19 CNS
NCI-H23 lung = system: NCI-H23 lung
OVCAR-3 ovarian = system: OVCAR-3 ovarian
HCT-15 colon = system: HCT-15 colon
SF-268 CNS = system: SF-268 CNS
HOP-92 NSCLC = system: HOP-92 NSCLC
MOLT-4 leukemia = system: MOLT-4 leukemia
SF-539 CNS = system: SF-539 CNS
A549 NSCLC = system: A549 NSCLC
KM12 colon = system: KM12 colon

| SMILES | TGI (SK-OV-3 ovarian) [µM] | TGI (SN12C renal) [µM] | TGI (EKVX NSCLC) [µM] | TGI (IGROV1 ovarian) [µM] | TGI (HCT-116 colon) [µM] | TGI (SNB-19 CNS) [µM] | TGI (NCI-H23 lung) [µM] | TGI (OVCAR-3 ovarian) [µM] | TGI (HCT-15 colon) [µM] | TGI (SF-268 CNS) [µM] | TGI (HOP-92 NSCLC) [µM] | TGI (MOLT-4 leukemia) [µM] | TGI (SF-539 CNS) [µM] | TGI (A549 NSCLC) [µM] | TGI (KM12 colon) [µM] |
| --- | --- | --- | --- | --- | --- | --- | --- | --- | --- | --- | --- | --- | --- | --- | --- |
| COC(=O)C1(C)CCCC2(C)C3CCC4CC3(C=C4CO)CCC12 (stereo not drawn) | > 100 | 60.7 | > 100 | > 100 | > 100 | > 100 | > 100 | > 100 | 34.9 | > 100 | > 100 | 76.4 | > 100 | > 100 | – |
| CN(C)/C=C/c1ccncc1 | > 100 | > 100 | > 100 | > 100 | > 100 | > 100 | > 100 | > 100 | > 100 | > 100 | > 100 | > 100 | > 100 | > 100 | > 100 |
| COC(=O)CC1(O)C(/C=C/c2ccccc2)C(C(=O)OC)C(=O)C(C(=O)OC)C1C(=O)OC (stereo not drawn) | > 100 | > 100 | > 100 | > 100 | > 100 | > 100 | > 100 | > 100 | > 100 | > 100 | > 100 | > 100 | > 100 | > 100 | > 100 |
| [O-]c1c[n+](CC[n+]2cc([O-])on2)no1 | > 100 | > 100 | > 100 | > 100 | > 100 | > 100 | > 100 | > 100 | > 100 | > 100 | > 100 | > 100 | – | > 100 | > 100 |
| COc1cccc(C[C@H]2COC(=O)[C@]2(O)Cc2cccc(OC)c2)c1 | > 100 | > 100 | 81.6 | > 100 | > 100 | > 100 | > 100 | > 100 | > 100 | 39.4 | > 100 | > 100 | > 100 | > 100 | > 100 |
| Cc1ccc(S(=O)(=O)NC2=NS(=O)(=O)c3cc(C)c(Cl)cc3S2)cc1 | > 100 | > 100 | > 100 | > 100 | > 100 | > 100 | > 100 | > 100 | > 100 | > 100 | > 100 | > 100 | > 100 | > 100 | > 100 |
| CC(=O)N1C2=CCCC2(C)c2ccccc21 (stereo not drawn) | > 100 | > 100 | > 100 | > 100 | > 100 | > 100 | > 100 | > 100 | > 100 | > 100 | > 100 | > 100 | > 100 | > 100 | > 100 |
